Data: US20120295838A1, “Selective poly-substituted glycine antibiotics and related compositions” (priority 2008, published 2012)
Converted amounts (≈) assume the structure as drawn. Numbered stars: 1 amine (or outer) side, 2 acyl side, 3 side chain; on linkers, the order of the positions; unused ones are H or OH. Square brackets hold non-standard residues; d marks the D form. Peptide text beside a SMILES is read from it. X2 = CCC[C@H](C)N(CC(=O)[*:2])[*:1]; Nspe = C[C@H](NCC(=O)O)c1ccccc1; Nphe = O=C(O)CNCc1ccccc1; Nlys = NCCCCNCC(=O)O

Columns and labels:
[1] = tested on: NIH 3T3 mouse fibroblast cells; experiment: MTS assay, NIH 3T3 cells; type: cell-based
Summary of the method: (§1)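 NIH/3T3 cells seeded at 5,000 per well, grown a day in DMEM with 10% FBS, then washed and exposed to serially diluted peptoid in HBSS together with MTS reagent. Absorbance at 490 nm read after 3 hours at 37 °C as a measure of metabolic activity; mean of six replicates.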

MTS assay, NIH 3T3 cells = type: cell-based, mouse; conditions: mouse, NIH 3T3 fibroblast cells
Summary of the method: as §1

human erythrocytes = experiment: Hemolysis assay; type: cell-based
Summary of the method: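 Peptoid dilution series (1:2 in PBS) combined with equal volume of 20 vol % human red cells from heparinised blood, 37 °C for 1 h. Released hemoglobin measured as supernatant absorbance at 350 nm post-centrifugation, scaled between PBS-only wells and 0.2 vol % Triton X-100 total lysis.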

E. coli ATCC 35218 = type: cell-based; conditions: ATCC 35218
[2] = tested on: Staphylococcus aureus NRS119; type: cell-based; conditions: NRS119
Experimental: (§2) Antibacterial assays. MICs were determined according to CLSI M7-A6 protocols in a 96-well microtiter plate. In test wells, 50 uL bacterial inoculum (5×10^5 CFU/ml) in Mueller-Hinton broth (MHB) was added to 50 μL peptoid solution in MHB (prepared by 1:2 serial dilutions). Positive controls contained 50 μL inoculum and 50 μL MHB without peptoid. […] MIC values reported were reproducible between three independent experimental replicates, each consisting of two parallel trials. Broad-spectrum antimicrobial susceptibility testing was performed against BSL2 pathogens by Nova Biologicals, Inc. (Conroe, Tex.).
(§3) Broad-spectrum antibacterial assays. MICs of compounds were determined by microdilution procedure in Mueller-Hinton broth (MHB) in accordance with CLSI M7-A6 protocols in a manner similar to that described for the screen antibacterial assays. Inoculated microtiter plates were incubated at 35° C. for 24 hours prior to the result being recorded. Four ATCC strains that were used as standards are recommended by CLSI: Pseudomonas aeruginosa ATCC 27853, Escherichia coli ATCC 25922, Staphylococcus aureus ATCC 29213 and Enterococcus faecalis ATCC 29212. Other strains from the ATCC collection include Proteus vulgaris ATCC 49132, Proteus mirabilis ATCC 35659, Klebsiella pneumoniae ATCC 33495, Enterobacter aerogenes ATCC 35029 and Serratia marcescens ATCC 13880. S. aureus NRS100 (COL) is a well characterized methicillian-resistant S. aureus (MRSA) strain. The strains S. aureus VAN1 and S. aureus VAN2, vancomycin-resistant MRSA strains that were isolated in Michigan and Pennsylvania, were the first vancomycin-resistant strains clinically isolated. S. aureus NRS 119 and S. aureus NRS 120 are linezolid-resistant isolates from the Network on Antimicrobial Resistance in S. aureus (NARSA) collection. E. faecalis 99 and E. faecium 106 are vancomycin-resistant enterococcal strains.

[3] = tested on: Staphylococcus aureus ATCC 29213; type: cell-based; conditions: ATCC 29213
Experimental: as §2, §3

[4] = tested on: Enterobacter aerogenes ATCC 35029; type: cell-based; conditions: ATCC 35029
Experimental: as §2, §3

Enterococcus faecalis 99 = type: cell-based; conditions: 99
Experimental: as §2, §3

[5] = tested on: Staphylococcus aureus NRS120; type: cell-based; conditions: NRS120
Experimental: as §2, §3

[6] = tested on: Klebsiella pneumoniae ATCC 33495; type: cell-based; conditions: ATCC 33495
Experimental: as §2, §3

[7] = tested on: Enterococcus faecalis ATCC 29212; type: cell-based; conditions: ATCC 29212
Experimental: as §2, §3

[8] = tested on: Staphylococcus aureus NRS100 (COL); type: cell-based; conditions: NRS100 (COL)
Experimental: as §2, §3

[9] = tested on: Staphylococcus aureus VAN2; type: cell-based; conditions: VAN2
Experimental: as §2, §3

[10] = tested on: Escherichia coli ATCC 25922; type: cell-based; conditions: ATCC 25922
Experimental: as §2, §3

[11] = tested on: Pseudomonas aeruginosa ATCC 27853; type: cell-based; conditions: ATCC 27853
Experimental: as §2, §3

[12] = tested on: Staphylococcus aureus VAN1; type: cell-based; conditions: VAN1
Experimental: as §2, §3

[13] = tested on: Proteus vulgaris ATCC 49132; type: cell-based; conditions: ATCC 49132
Experimental: as §2, §3

Enterococcus faecium 106 = type: cell-based; conditions: 106
Experimental: as §2, §3

E. coli JM109 = type: cell-based; conditions: Table 1; SR = (HD10)/(E. coli MIC)
Source text: An initial set of 15 ampetoid analogs was synthesized to determine whether peptoids are affected by structural and sequence modifications in a manner consistent with AMP activities. The designs for ampetoids in this library were derived from two antibacterial and selective amphipathic dodecamers, 1 and 2. Peptoid 1 [H-(Nlys-Nspe-Nspe)4-NH2] is composed of 2/3 Nspe, the peptoid analog of phenylalanine, and 1/3 Mys, the peptoid analog of lysine (see FIG. 1 for the structures of representative peptoid monomers and corresponding N-substituents). Peptoid 2 [H-(Mys-Nssb-Nspe)4-NH2] contains 1/3 isoleucine-like Nssb monomers in place of Nspe. The variant sequences were designed to effect changes in chirality, length, hydrophobicity, charge, and amphipathicity. All of these compounds were tested for antibacterial activity against representative BSL1 Gram-negative (E. coli JM109) and Gram-positive (B. subtilis BR151) bacterial strains. As an initial measure of selectivity, the lytic activity of the peptoids was determined against human erythrocytes. Table 1 summarizes the sequences synthesized, the solvent composition at RP-HPLC elution as a relative measure of molecular hydrophobicity, and antibacterial and hemolytic activities.
Antibacterial assays. MICs were determined according to CLSI M7-A6 protocols in a 96-well microtiter plate. […]

[14] = tested on: A549 lung epithelial cells; experiment: MTS assay, A549 cells
Experimental: The biocompatibility of selected oligomers with A549 lung epithelial cells was evaluated using the MTS [3-(4,5-dimethylthiazol-2-yl)-5-(3-carboxymethoxyphenyl)-2-(4-sulfophenyl)-2H-tetrazolium] assay.
MTS Assays. A549 carcinoma-derived lung epithelial cells (ATTC CCL-185) were cultured in Ham's F12K media (ATTC, Manassas, Va.). A peptoid solution plate (100 μL/well) was prepared by serial dilution of aqueous peptoid stocks in media. Peptoid solutions were transferred onto a 96-well plate of day-old cell monolayers containing 100 μL/well media with 5000 cells/well. MTS reagent (Promega Corporation, Madison, Wis.) (40 μL/well) was added to each well and the plate was incubated at 37° C. for 3 h, after which absorbance at 490 nm was determined. Percent inhibition was determined as [1−(A−Atest blank)/(Acontrol−Ablank)]×100, where A is the absorbance of the test well and Acontrol the average absorbance of wells with cells exposed to media and MTS (no peptoid). Atest blank (media, MTS, and peptoid) and Ablank (media and MTS) were background absorbances measured in the absence of cells. The average of six replicates are reported, and error bars show one standard deviation.

B. subtilis ATCC 6633 = type: cell-based; conditions: ATCC 6633
Summary of the method: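 Broth microdilution MICs per CLSI M7-A6 in cation-adjusted Mueller-Hinton broth, using 1×10^6 CFU/mL inoculum added 1:1 to twofold serial peptoid dilutions. Values reproducible across three independent experiments, each with two parallel trials.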

C[C@@H](c1ccccc1)N(CC(N)=O)C(=O)CN(C(=O)CN(CCCCN)C(=O)CN(C(=O)CN(C(=O)CN(CCCCN)C(=O)CN(C(=O)CN(C(=O)CN(CCCCN)C(=O)[C@@H]1CCCN1C(=O)CN(C(=O)CNCCCCN)[C@@H](C)c1ccccc1)[C@@H](C)c1ccccc1)[C@@H](C)c1ccccc1)[C@@H](C)c1ccccc1)[C@@H](C)c1ccccc1)[C@@H](C)c1ccccc1 [1-Pro3, H-Nlys-Nspe-L-Pro-(Nlys-Nspe-Nspe)3-NH2] (H-[Nlys][Nspe]P[Nlys][Nspe][Nspe][Nlys][Nspe][Nspe][Nlys][Nspe][Nspe]-NH2)
ID50 [1]: 12 µM | CC50 at 3 h (MTS assay, NIH 3T3 cells): 12 µM | HD10 (human erythrocytes): 74 µM | E. coli MIC (E. coli ATCC 35218): 12.5 µM

C[C@@H](c1ccccc1)N(CC(N)=O)C(=O)CN(Cc1ccccc1)C(=O)CN(CCCCN)C(=O)CN(Cc1ccccc1)C(=O)CN(Cc1ccccc1)C(=O)CN(CCCCN)C(=O)CN(Cc1ccccc1)C(=O)CN(Cc1ccccc1)C(=O)CN(CCCCN)C(=O)CN(Cc1ccccc1)C(=O)CN(Cc1ccccc1)C(=O)CNCCCCN [1achiral-Nspe12, H-(Nlys-Npm-Npm)3-(Nlys-Npm-Nspe)-NH2]
ID50 [1]: 15 µM | CC50 at 3 h (MTS assay, NIH 3T3 cells): 15 µM | HD50 (human erythrocytes): > 200 µM | E. coli MIC (E. coli ATCC 35218): 6.3 µM

C[C@@H](c1ccccc1)N(CC(N)=O)C(=O)CN(Cc1ccccc1)C(=O)CN(CCCCN)C(=O)CN(C(=O)CN(Cc1ccccc1)C(=O)CN(CCCCN)C(=O)CN(C(=O)CN(Cc1ccccc1)C(=O)CN(CCCCN)C(=O)CN(C(=O)CN(Cc1ccccc1)C(=O)CNCCCCN)[C@@H](C)c1ccccc1)[C@@H](C)c1ccccc1)[C@@H](C)c1ccccc1 [1-Npm2,5,8,11, H-(Nlys-Npm-Nspe)4-NH2] (H-[Nlys][Nphe][Nspe][Nlys][Nphe][Nspe][Nlys][Nphe][Nspe][Nlys][Nphe][Nspe]-NH2)
ID50 [1]: 6.8 µM | CC50 at 3 h (MTS assay, NIH 3T3 cells): 6.8 µM | MIC [2]: 16 µg/mL (≈ 9.07 µM) | MIC [3]: 8 µg/mL (≈ 4.54 µM) | MIC [4]: 64 µg/mL (≈ 36.3 µM) | MIC (Enterococcus faecalis 99): 64 µg/mL (≈ 36.3 µM) | MIC [5]: 16 µg/mL (≈ 9.07 µM) | MIC [6]: 16 µg/mL (≈ 9.07 µM) | MIC [7]: 8 µg/mL (≈ 4.54 µM) | MIC [8]: 8 µg/mL (≈ 4.54 µM) | MIC [9]: 8 µg/mL (≈ 4.54 µM) | MIC [10]: 8 µg/mL (≈ 4.54 µM) | MIC [11]: 64 µg/mL (≈ 36.3 µM) | MIC [12]: 8 µg/mL (≈ 4.54 µM) | MIC [13]: 64 µg/mL (≈ 36.3 µM) | MIC (Enterococcus faecium 106): 4 µg/mL (≈ 2.27 µM) | E. coli MIC (E. coli ATCC 35218): 6.3 µM

CCC[C@H](C)N(CC(=O)N(CC(N)=O)[C@@H](C)c1ccccc1)C(=O)CN(CCCCN)C(=O)CN(C(=O)CN(C(=O)CN(CCCCN)C(=O)CN(C(=O)CN(C(=O)CN(CCCCN)C(=O)CN(C(=O)CN(C(=O)CNCCCCN)[C@@H](C)CCC)[C@@H](C)c1ccccc1)[C@@H](C)CCC)[C@@H](C)c1ccccc1)[C@@H](C)CCC)[C@@H](C)c1ccccc1 [2-Nsap2,5,8,11, H-(Nlys-Nsap-Nspe)4-NH2] (H-[Nlys][X2][Nspe][Nlys][X2][Nspe][Nlys][X2][Nspe][Nlys][X2][Nspe]-NH2)
Selectivity ratio (SR) (E. coli JM109): >16

C[C@@H](c1ccccc1)N(CC(=O)N(CC(=O)N(CCCCN)CC(=O)N(CC(=O)N(CC(=O)N(CCCCN)CC(=O)N(CC(=O)N(CC(=O)N(CCCCN)CC(=O)N(CC(=O)N(CC(N)=O)Cc1ccccc1)Cc1ccccc1)Cc1ccccc1)Cc1ccccc1)Cc1ccccc1)Cc1ccccc1)Cc1ccccc1)C(=O)CNCCCCN [1ach-Nspe2, H-(Nlys-Nspe-Npm)-(Nlys-Npm-Npm)3-NH2] (H-[Nlys][Nspe][Nphe][Nlys][Nphe][Nphe][Nlys][Nphe][Nphe][Nlys][Nphe][Nphe]-NH2)
ID50 [1]: 11 µM | CC50 at 3 h (MTS assay, NIH 3T3 cells): 11 µM | E. coli MIC (E. coli ATCC 35218): 6.3 µM

C[C@@H](c1ccccc1)N(CC(N)=O)C(=O)CN(C(=O)CN(CCCCN)C(=O)CN(C(=O)CN(C(=O)CN(CCCCN)C(=O)[C@@H]1CCCN1C(=O)CN(C(=O)CN(CCCCN)C(=O)CN(C(=O)CN(C(=O)CNCCCCN)[C@@H](C)c1ccccc1)[C@@H](C)c1ccccc1)[C@@H](C)c1ccccc1)[C@@H](C)c1ccccc1)[C@@H](C)c1ccccc1)[C@@H](C)c1ccccc1 [1-Pro6, H-Nlys-Nspe-Nspe-Nlys-Nspe-L-Pro-(Nlys-Nspe-Nspe)2-NH2] (H-[Nlys][Nspe][Nspe][Nlys][Nspe]P[Nlys][Nspe][Nspe][Nlys][Nspe][Nspe]-NH2)
ID10 relative to that of pexiganan [14]: 10 times | CC50 at 3 h (MTS assay, NIH 3T3 cells): 18 µM | HD10 (human erythrocytes): 83 µM | HD50 (human erythrocytes): > 200 µM | MIC for B. subtilis ATCC 6633 (B. subtilis ATCC 6633): 1.6 µM | E. coli MIC (E. coli ATCC 35218): 12.5 µM | MIC for E. coli ATCC 35218 (E. coli ATCC 35218): 12.5 µM

C[C@@H](c1ccccc1)N(CC(N)=O)C(=O)CN(C(=O)CN(CCCCN)C(=O)CN(C(=O)CN(C(=O)CN(CCCCN)C(=O)CN(C(=O)CN(C(=O)CN(CCCCN)C(=O)CN(C(=O)CN(C(=O)CN(CCCCN)C(=O)CN(C(=O)CN(C(=O)CNCCCCN)[C@@H](C)c1ccccc1)[C@@H](C)c1ccccc1)[C@@H](C)c1ccccc1)[C@@H](C)c1ccccc1)[C@@H](C)c1ccccc1)[C@@H](C)c1ccccc1)[C@@H](C)c1ccccc1)[C@@H](C)c1ccccc1)[C@@H](C)c1ccccc1 [115 mer, H-(Nlys-Nspe-Nspe)5-NH2]
cytotoxicity (in words) ([14]; A549 lung epithelial cells, MTS, FIG. 2): no worse than pexiganan
